# Measured values published in US8865237B2, “Method of preparing dialysed extract of fenugreek seeds which induces hypoglycemia, mediated, in part, via stimulation of insulin signaling pathway” (Department of Biotechnology, priority 2006, dated 2014).
# How the values were obtained:
# [1] = system: GLUT4 in 3T3-L1 adipocytes; experiment: GLUT4 translocation in 3T3-L1 cells (mycGLUT4 ELISA, membrane fractionation); assay type: cell-based
# Description: GLUT4 Translocation Assay in GLUT4 Overexpressing Cell lines. CHO clones expressing insulin receptor and GLUT4eGFP protein were plated on a microscopic chamber slide (ICN, Costa Mesa, Calif.), serum starved in DMEM containing 1 mg/ml BSA for 3 h, followed by treatment with 100 nmol/l insulin or 25 mg/l FSE for 10 and 30 min respectively. Treatment was terminated by keeping the slide on ice and washing with cold PBS. Cells were fixed with 3% para-formaldehyde (PF) in PBS for 15 min at room temperature. GLUT4 translocation was investigated by using LSM confocal microscope (Zeiss LSM 510, Heidelberg, Germany). 3T3-L1 expressing mycGLUT4 were grown in 96 well plated then differentiated to adipocytes, serum starved for 3 h and incubated with insulin or FSE for 10 and 30 min respectively. To examine the specificity of the signaling pathway the cells were pretreated with wortmannin (100 nmol/l) or BIS-1 (100 nmol/l) for 20 min and 1 h respectively. […] The optical absorbance of the supernatant was measured at 414 nm. […]
# (§1) Effect of FSE on glucose transport in GLUT4 overexpressing cells. […] CHO cells overexpressing insulin receptor as well as GLUT4 were incubated in the presence of various concentrations of FSE for 30 min and glucose transport was measured by determining the rates 2DG uptake. […]
# PKCλ in HepG2 cells = experiment: Confocal microscopy analysis of PKC translocation in HepG2 cells; assay type: cell-based, human; conditions: HepG2, pretreatment before extract
# Description: Confocal microscopy analysis of PKC translocation in HepG2 cells. HepG2 cells were serum starved for 3 h and were treated with either 100 nmol/l insulin for 10 min or 25 mg/l FSE for 30 min. In some wells, cells were pretreated with pharmacological inhibitors before treating with extract. Cells were washed quickly with cold PBS and fixed by treating with 3% paraformaldehyde in PBS Ph 7.4, for 15 min at room temperature, rinsed with PBS three times and quenched with 1% glycine for 10 min. Cells were permeabilised with 0.025% saponin in PBS, for 5 min, blocked with PBS containing 5% FBS for 1 h at room temperature, incubated with anti-PKC antibody for overnight at 4° C. in PBS oontaining 2.5% FBS. Cells were washed four times for 5 min each with PBS. Cells were then incubated with a flourescein isothoicyanate conjugated anti-rabbit antibody for additional 1 h, washed again and mounted using vectashield (Vector Laboratories, Burlingame, Calif.) for visualization by confocal microscopy. Rabbit IgG was used as an isotype control.
# Effect of FSE on PKCλ translocation in 3T3-L1 and RepG2 cells. […] To investigate the link between FSE induced 1R phosphorylation and GLUT4 translocation, translocation of PKCλ was studied in both 3T3-L1 and HepG2. […] Wortmannin and bis-1 decreased the fluorescence associated with the membrane.
# [2] = system: PKCλ in 3T3-L1 adipocytes; experiment: PKCλ in plasma membrane fraction of 3T3-L1 adipocytes (immunoblotting); assay type: cell-based; conditions: wortmannin 100 nmol/l 20 min, BIS-1 100 nmol/l 1 h
# Description: Isolation of plasma membrane fraction and immunoblotting detection of PKCλ and GLUT4 in 3T3-L1 adipocytes. Differentiated 3T3-L1 cells in 100 mm petri dishes were serum starved for 3 h in DMEM supplemented with 0.1% BSA and then treated with 100 nmol/l insulin or […] for 10 min and 30 min respectively. In some cases cells were pre-treated with 100 nmol/l wortmannin, for 20 min or 100 nmol/l BIS-1 for 1 h followed by treatment with extract t for additional 30 min. Plasma membrane fractionation of 3 T3-L1 adipocytes was performed as previously described (28) with slight modifications that 1 mmol/l PMSF, 1 mmol/l Na3VO4 and a cocktail of protease inhibitors were added to the lysis buffers. Equal protein was diluted with 5× Laemmli buffer, electrophoresied by 10% SDS-PAGE and transferred on to a nitrocellulose membrane. The membrane was probed with anti-nPKCλ or anti-GLUT4 antibody.
# Effect of FSE on PKCλ translocation in 3T3-L1 and RepG2 cells. […] To investigate the link between FSE induced 1R phosphorylation and GLUT4 translocation, translocation of PKCλ was studied in both 3T3-L1 and HepG2. […] In unstimulated HepG2 cells the immunofluorescence was minimum as visualized by confocal microscopy. […] Wortmannin and bis-1 decreased the fluorescence associated with the membrane.
# [3] = system: CHO clones expressing insulin receptor and GLUT4eGFP; experiment: Glucose transport (2-DG uptake) in GLUT4 overexpressing CHO cells; assay type: cell-based; conditions: wortmannin 20 min or BIS-1 100 nmol/l 1 h, then extract 30 min
# Description: Cell Culture In Vitro Studies. […] For preadipocyte differentiation 80% confluent preadipocytes were cultured for 2 days in differentiation medium (DMEM supplemented with 1 μmol/l insulin, 0.5 mmol/l IBMX, 0.25 μmol/l DEX containing 10% FBS) and for 2 days in DMEM supplemented with 1 μmol/l insulin and 10% FBS. Thereafter the cells were grown for an additional 4-5 days in DMEM containing 10% FBS. Media was changed on every second day without any additional supplements. CHO clones expressing insulin receptor and GLUT4eGFP protein were grown in media supplemented with hygromycin additionally (100 μg/ml). Penicillin (100 units/ml) and streptomycin ([…]) were added routinely to cultures and all cell lines were cultivated at 37° C. in a 5% CO2 enriched humidified atmosphere.
# Effect of FSE on glucose transport. […] Protein was estimated and the radioactivity incorporated into cells was quantified by scintillation counting (Packard, Albertville, Minn.). Nonspecific uptake, measured in the presence of 10 μmol/l cytochalasin B, was subtracted from all values. […]
# as §1
# [4] = system: insulin receptor, IRS-1 and p85 subunit of PI3-Kinase in 3T3-L1 adipocytes; experiment: Phosphorylation of insulin signaling proteins in 3T3-L1 adipocytes (western blot); assay type: cell-based; conditions: 3T3-L1, 25 mg/l FSE or 100 nmol/l insulin
# Description: (§2) Effect of FSE on insulin signaling proteins in 3T3-L1 Adipocytes and HepG2 cell lines. Differentiated 3T3-L1 adipocytes or HepG2 cell were serum starved in F-12K medium containing 7 mM glucose and 0.1% BSA for 16 h followed by changing medium to DMEM containing 25 mmol/l glucose and incubated for 1 h. Subsequently the cells were treated with 100 nmol/l insulin or 25 mg/l FSE for 10 min and 30 min respectively. Untreated cells were incubated with PBS. Cells were washed with cold PBS, removed from the plates using a rubber policeman, lysed in lysis buffer (50 mmol/l Tris-HCl pH7.5, 150 mmol/l NaCl, 1% NP-40, 2 mmol/l EGTA, 2 mmol/l Na3VO4, 100 mmol/l Na4P2O7, […], 1 mmol/l PMSF and protease inhibitor cocktail) on ice for 30 min, passed through 261/2G syringe 20 times and finally centrifuged at 15,000×g for 10 min at 4° C. Equal amounts of protein (100 μg) were diluted in 5× Laemmli reducing buffer (250 mmol/l Tris-HCl p 6.8, 10% SDS, 0.5% bromophenol blue, 50% glycerol, 12.5% β-mercaptoethanol) boiled for 5 min at 100° C. and resolved by 8% SDS-PAGE by running proteins below 43 kDa out of the gel. The proteins form the gel were transferred to nitrocellulose membrane using transfer buffer (CAPS buffer pH 10.7 containing 10% methanol) by applying 150 mA current for 2 h. […]
# liver glucokinase (GK) = experiment: Liver glucokinase assay in STZ-BALB/cJ mice; assay type: in vivo
# Description: BALB/cJ or Swiss albino mice (male, 8-10 week old) were housed under environmentally controlled conditions (22+/−2° C.) with a 12 h light/dark cycle and had free access to standard rodent pellet food and water. Animals were given 5 daily intraperitoneal (IP) injection of freshly prepared STZ (40 mg/kg in 0.5 mol/l sodium citrate pH 4.5) or AXN (50 mg/kg in 0.9% sodium chloride). Ten hours before the experiments, animals were moved to new cages in which no food was available. AXN injected mice that achieved a glucose level of 200-300 mg/dl and STZ injected mice that achieved a glucose level of 275-400 mg/dl were used as hyperglycemic models in this study. Mice were divided into, diabetic control group, insulin group and FSE group (n=5 in each group). Mice were injected (IP) with vehicle (PBS), insulin (1.5 U/kg) or extract (1, 5 or 15 mg/kg). Blood was collected before injection (0 min), 90 and 240 min after the treatments and serum blood glucose levels were estimated. In some experiments STZ-BALB/cJ mice were sacrificed 90 min after the treatments, and the livers were harvested for analysis. In another set of experiments, AXN-induced Swiss albino diabetic mice were injected with PBS or extract for 5 days (n=5). Blood was collected on day 0, 5, 10 and 15 and body weight was monitored on same day. Acidified insulin from bovine pancreas diluted in PBS was used as a positive test compound in all the experiments. All animal experiments have been performed following the requirement of the committee for the Purpose of Control and Supervision of Experiments on Animals (CPCSEA), Government of India, and after permission of the Institute's Animal Care and Use Committee (IACUC).
# Glucokinase assay. Liver samples were homogenized in three volumes of ice cold buffer containing 50 mmol/l Tris-HCl, pH 7.4, 300 mmol/l sucrose, 100 mmol/l KCl, 1 mmol/l EDTA 2.5 mmol/1 mercaptoethanol and centrifuged at 12,000×g for 15 min (12). […] GK activity was calculated as the difference between the glucose phosphorylation capacity at 100 and 0.5 mmol/l glucose. […]
# [5] = system: insulin receptor, IRS-1 and p85 subunit of PI3-Kinase in HepG2 cells; experiment: Phosphorylation of insulin signaling proteins in HepG2 cells (western blot); assay type: cell-based, human; conditions: HepG2, 25 mg/l FSE or 100 nmol/l insulin
# Description: as §2
Compound,"effect of inhibitor pretreatment on FSE induced GLUT4 translocation ([1]; wortmannin 100 nmol/l 20 min, BIS-1 100 nmol/l 1 h)",effect of inhibitors on fluorescence associated with the membrane (PKCλ in HepG2 cells),effect of inhibitor pretreatment on translocation of PKCλ induced by FSE [2],effect of inhibitor pretreatment on FSE stimulated glucose uptake [3],"enhancement of glucose uptake ([1]; 100 nmol/l insulin, under similar experimental conditions) [fold]",IR-α phosphorylation [4],"enhancement of GK activity compared to diabetic control (liver glucokinase (GK); STZ-diabetic BALB/cJ mice, 90 min, FSE 15 mg/kg) [%]","activation of GK compared to control treated animals (liver glucokinase (GK); diabetic animals, 90 min treatment) [fold]","GK activity (liver glucokinase (GK); liver removed 90 min after treatment, insulin 1.5 U/kg or FSE 15 mg/kg) [nmol/min/mg]",IR-α phosphorylation [5]
CN(C)CCCn1cc(C2=C(c3c[nH]c4ccccc34)C(=O)NC2=O)c2ccccc21 [BIS-1],masked,decreased,inhibited,abrogated,,,,,,
insulin,,,,,2.5,did not exhibit,460,4.5,690.0,did not exhibit
